Results reported in paper PMC3757949 (Nature medicine, 2012).

What was measured:
ERα and ERβ = format: cell-based, human
MCF-7 xenografts = assay: Tumor growth in MCF-7 xenograft OVX nude mice; format: in vivo; settings: for volume of harvested tumors / weight of harvested tumors: after 9 weeks of treatment, mean ± s.e.m.; for tumor incidence at day 68: conjugates 4,000 μg per kg body weight daily, estradiol as s.c. pellet
GLP-1R [1] = molecular target: T1, GLP-1R (Homo sapiens, UniProt P43220); assay: GLP-1R activation, CRE-luciferase reporter gene assay in HEK 293 cells; format: cell-based
T1 sequence (P43220 24-463, species assumed): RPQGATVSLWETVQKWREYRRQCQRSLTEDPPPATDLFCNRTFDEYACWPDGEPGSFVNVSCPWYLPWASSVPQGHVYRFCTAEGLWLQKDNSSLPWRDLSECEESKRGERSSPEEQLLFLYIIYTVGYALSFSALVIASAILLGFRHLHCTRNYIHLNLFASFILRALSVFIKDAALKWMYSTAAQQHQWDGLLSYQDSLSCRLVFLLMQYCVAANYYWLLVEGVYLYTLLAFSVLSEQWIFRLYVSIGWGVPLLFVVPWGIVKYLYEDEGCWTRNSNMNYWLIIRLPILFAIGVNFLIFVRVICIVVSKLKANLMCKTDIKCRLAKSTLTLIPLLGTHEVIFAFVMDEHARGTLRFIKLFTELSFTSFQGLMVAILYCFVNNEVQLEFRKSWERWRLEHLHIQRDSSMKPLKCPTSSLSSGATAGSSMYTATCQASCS

DIO mice = assay: Body weight in diet-induced obese; format: in vivo; settings: DIO male mice
GLP-1R [2] = molecular target: T1, GLP-1R; assay: GLP-1R competitive binding
[3] = Conjugate degradation analysis in human plasma; format: in vitro ADME; settings: pH 7.4, 37 °C

| EC50 (ERα and ERβ; read-out: EC50, intracellular estrogen activity (ERE-mediated transcriptional activity), mean ± s.d.) | SMILES | volume of harvested tumors (MCF-7 xenografts) | weight of harvested tumors (MCF-7 xenografts) | tumor incidence at day 68 (MCF-7 xenografts) | fold lower GLP-1R potency in presence of plasma (GLP-1R [1]; 20% human plasma versus no plasma) | body weight loss (DIO mice; 400 μg per kg body weight daily s.c., 14 d (Fig. 5d)) | GLP-1R binding affinity (IC50) compared to parent peptide (GLP-1R [2]) | GLP-1R biochemical signaling potency (EC50) compared to parent peptide (GLP-1R [1]) | intracellular estrogen activity compared to estrone (ERα and ERβ; cells do not express GLP-1R) | time to complete degradation with release of estrogen [3] | decrease in body weight (DIO mice; 400 μg per kg body weight daily s.c., 2 weeks) | body weight at end of treatment (DIO mice; 400 μg per kg body weight daily s.c., 2 weeks, mean ± s.e.m.) | body weight at start of treatment (DIO mice; 400 μg per kg body weight, mean ± s.e.m.) |
| --- | --- | --- | --- | --- | --- | --- | --- | --- | --- | --- | --- | --- | --- |
| 4 ± 1 pM | C[C@]12CC[C@@H]3c4ccc(O)cc4CC[C@H]3[C@@H]1CC[C@@H]2O [estradiol, 17β-estradiol, reference compound] | 1,461.2 ± 584.3 mm^3 | 779.7 ± 257.7 mg | 100% | – | – | – | – | – | – | – | – | – |
| – | CCCCCCCCCCCCCCCC(=O)N[C@@H](CCC(=O)N[C@@H](CCC(=O)NCCCC[C@H](NC(=O)[C@H](CO)NC(=O)[C@@H]1CCCN1C(=O)[C@@H]1CCCN1C(=O)[C@@H]1CCCN1C(=O)[C@H](C)NC(=O)CNC(=O)[C@H](CO)NC(=O)[C@H](CO)NC(=O)[C@@H]1CCCN1C(=O)CNC(=O)CNC(=O)[C@H](CCCCN)NC(=O)[C@@H](NC(=O)[C@H](CC(C)C)NC(=O)[C@H](Cc1c[nH]c2ccccc12)NC(=O)[C@H](C)NC(=O)[C@@H](NC(=O)[C@H](Cc1ccccc1)NC(=O)[C@H](CCC(=O)O)NC(=O)[C@H](CCCCN)NC(=O)[C@H](C)NC(=O)[C@H](C)NC(=O)[C@H](CCC(N)=O)NC(=O)[C@H](CCC(=O)O)NC(=O)[C@H](CCC(=O)O)NC(=O)[C@H](CC(C)C)NC(=O)[C@H](Cc1ccc(O)cc1)NC(=O)[C@H](CO)NC(=O)[C@H](CO)NC(=O)[C@@H](NC(=O)[C@H](CC(=O)O)NC(=O)[C@H](CO)NC(=O)[C@@H](NC(=O)[C@H](Cc1ccccc1)NC(=O)[C@@H](NC(=O)CNC(=O)[C@H](CCC(=O)O)NC(=O)C(C)(C)NC(=O)[C@@H](N)Cc1c[nH]cn1)[C@@H](C)O)[C@@H](C)O)C(C)C)[C@@H](C)CC)C(C)C)C(N)=O)C(=O)O)C(=O)O [acylated GLP-1 analog] | – | – | – | ~ 400 fold | 30.1% | – | – | – | – | – | – | – |
| – | CC[C@H](C)[C@H](NC(=O)[C@H](Cc1ccccc1)NC(=O)[C@H](CCC(=O)O)NC(=O)[C@H](CCCCN)NC(=O)[C@H](C)NC(=O)[C@H](C)NC(=O)[C@H](CCC(N)=O)NC(=O)[C@H](CCC(=O)O)NC(=O)[C@H](CCC(=O)O)NC(=O)[C@H](CC(C)C)NC(=O)[C@H](Cc1ccc(O)cc1)NC(=O)[C@H](CO)NC(=O)[C@H](CO)NC(=O)[C@@H](NC(=O)[C@H](CC(=O)O)NC(=O)[C@H](CO)NC(=O)[C@@H](NC(=O)[C@H](Cc1ccccc1)NC(=O)[C@@H](NC(=O)CNC(=O)[C@H](CCC(=O)O)NC(=O)C(C)(C)NC(=O)[C@@H](N)Cc1c[nH]cn1)[C@@H](C)O)[C@@H](C)O)C(C)C)C(=O)N[C@@H](C)C(=O)N[C@@H](Cc1c[nH]c2ccccc12)C(=O)N[C@@H](CC(C)C)C(=O)N[C@H](C(=O)N[C@@H](CCCCN)C(=O)NCC(=O)NCC(=O)N1CCC[C@H]1C(=O)N[C@@H](CO)C(=O)N[C@@H](CO)C(=O)NCC(=O)N[C@@H](C)C(=O)N1CCC[C@H]1C(=O)N1CCC[C@H]1C(=O)N1CCC[C@H]1C(=O)N[C@@H](CO)C(=O)N[C@@H](CCCCNC(=O)CCC(=O)Oc1ccc2c(c1)CC[C@@H]1[C@@H]2CC[C@]2(C)C(=O)CC[C@@H]12)C(N)=O)C(C)C [labile GLP-1–estrogen conjugate] | 92.1 ± 23.8 mm^3 | 37.0 ± 9.0 mg | 100% | – | – | matched the parent peptides | matched the parent peptides | comparable intracellular estrogen activity to estrone | ≤ 6 h | 7.5% | 50.0 ± 1.1 g | 54.1 ± 0.9 g |
